Source: patent EP1066315B1 (University of Dundee, priority 1998, dated 2008)
“Also recorded” adds a separate entry of the source. Each block holds one molecule with its values, some of them ahead of it. Residues, ends and D or L forms follow the SMILES beside them. *: point of attachment. Fmoc = O=C(OCC1c2ccccc2-c2ccccc21)*; Cbz = O=C(OCc1ccccc1)*; CHN2 = [N-]=[N+]=C*

What was measured:
[1] = target: T1, disrupted lysosomes isolated from the human B cell line EDR (TTCF processing activity) (Homo sapiens, UniProt Q99538); assay: Digestion of TTCF by disrupted B cell lysosomes, SDS-PAGE readout; format: biochemical
T1 construct: disrupted lysosomes isolated from the human B cell line EDR; endogenous in cells; host or cells: human B cell line EDR, Percoll-gradient lysosomal fraction, disrupted
T1 sequence (Q99538 26-323 limits assumed): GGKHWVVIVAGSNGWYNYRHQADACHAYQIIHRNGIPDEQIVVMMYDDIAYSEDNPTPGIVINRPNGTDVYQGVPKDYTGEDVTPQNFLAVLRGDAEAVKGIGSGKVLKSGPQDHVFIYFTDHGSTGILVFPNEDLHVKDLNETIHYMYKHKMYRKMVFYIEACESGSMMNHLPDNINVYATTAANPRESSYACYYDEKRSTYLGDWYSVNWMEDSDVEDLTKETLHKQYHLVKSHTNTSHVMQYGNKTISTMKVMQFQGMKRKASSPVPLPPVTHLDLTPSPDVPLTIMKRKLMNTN
Description: The invention will now be described by reference to the following Examples and Figures wherein • Figure 1: Processing of TTCF by a leupeptin-insensitive cysteine endopeptidase activity. (a) TTCF was digested in vitro in the presence of disrupted lysosomes (1-2 µg) in the presence or absence of iodoacetamide (1 mM), leupeptin, E64 or pepstatin (each at 0.1 mg/ml). Digestions were in 0.1 M NH4 acetate at pH 4.5 or Na2HPO4, pH 6.0 or 7.0. After 4 hours at 37°C, the reactions were separated by Tris-tricine SDS-PAGE and stained with Coomassie Blue. (b) Cleavage sites: TTCF digestion products were separated by SDS PAGE and electrophoretically transferred to nitrocellulose membrane. Individual fragments numbered 1-6 were subjected to 5 cycles of Edman degradation. N-terminal sequence obtained is shown in bold following upstream residues from TTCF (tetanus toxin numbering). The N-terminal sequence of His-tagged TTCF was obtained for fragments 1 and 3. (c) Residues Asn 1184 and Glu 1184 in TTCF were mutated to alanine (see Methods) and digestions performed as before. The mutation abolishes cleavage at the mutated site but not at the first site (doublet at 47 kD). In this experiment cleavage of the third site was minimal. • Figure 2: TTCF is processed by an asparaginyl endopeptidase. (a) Chromatography of the TTCF processing activity on Mono-S resin. Fractions eluted by NaCl gradient were incubated with the substrates Z-Ala-Ala-Asn-NHMec or Z-Phe-Arg-NHMec in the presence or absence of E64 (trans-epoxysuccinyl-L-leucylamido-(4-guanidino)butane). […] (b) Fractions as above were incubated with 10 µg TTCF in the presence or absence of E64 for 4 hours at 37°C prior to SDS-PAGE analysis. (c) Each fraction was analysed by SDS-PAGE and Western blotting. Electrophoretically transferred material was probed with an affinity purified antiserum raised against the peptide KGIGSGKVLKSGPQC from human legumain^1. • Figure 3: Peptide inhibitors of AEP block asparaginyl endopeptidase activity and TTCF processing in vitro and in vivo. (a) TTCF was digested with purified AEP (legumain from pig kidney) in the presence or absence of 0.2 mg/ml of the peptides indicated. […] (b) Purified AEP or a crude lysosomal protease mixture were incubated with Z-Ala-Ala-Asn-NHMec, Z-Phe-Arg-NHMec (cathepsins L&B) or Z-Val-Val-Ala NHMec (cathepsin S) in the presence of increasing concentrations of AENK or AEQK. Release of 7-amino-4-methyl coumarin was measured after 10, 20 or 30 minutes. […] At different times the cells were washed, fixed in 0.05 % glutaraldehyde and co-cultured with autologous TTCF specific T cell clones. […] Proteins obtained from commercial sources, as described in the literature or custom peptides were digested with purified pig kidney legumain at pH 5.5 in the presence of 1 mM DTT. […] When present peptide was maintained during antigen pulsing at 1 mg/ml (a) or 2 mg/ml (b). At different times the cells were washed, fixed in 0.05 % glutaraldehyde and antigen presentation measured using proliferation of different autologous TTCF-specific T cell clones. c, AEP pre-processing of TTCF speeds antigen presentation. […] Presentation was measured after 60 minutes of antigen pulsing using EBV B cells.
[…]. […] Nor could we reproduce the lysosomal TTCF digestion pattern or indeed generate any of these fragments using purified cathepsins L, S, B, D or E , all of which have been implicated in the class II MHC antigen processing pathway (reviewed in refs 5 & 6).
TTCF processing activity. Lysosomal fractions from the human B cell line EDR were prepared on 27 % Percoll density gradients as previously described^8 using ^125I-labelled transferrin (internalised for 30 minutes at 37°C) and β-hexosaminidase to identify endosomal/plasma membrane and lysosomal fractions respectively. The peak of lysosomes was collected by centrifugation at 40,000 g for 1 hour, removed from the underlying Percoll pellet, collected again at 50,000 g for 1 hour and stored frozen. […]

[2] = test system: purified AEP (legumain from pig kidney); assay: Digestion of TTCF with purified AEP in the presence of tetrapeptides; format: biochemical; details: 0.2 mg/ml peptide; Fig 3a
Description: The invention will now be described by reference to the following Examples and Figures wherein • Figure 1: Processing of TTCF by a leupeptin-insensitive cysteine endopeptidase activity. (a) TTCF was digested in vitro in the presence of disrupted lysosomes (1-2 µg) in the presence or absence of iodoacetamide (1 mM), leupeptin, E64 or pepstatin (each at 0.1 mg/ml). Digestions were in 0.1 M NH4 acetate at pH 4.5 or Na2HPO4, pH 6.0 or 7.0. After 4 hours at 37°C, the reactions were separated by Tris-tricine SDS-PAGE and stained with Coomassie Blue. (b) Cleavage sites: TTCF digestion products were separated by SDS PAGE and electrophoretically transferred to nitrocellulose membrane. Individual fragments numbered 1-6 were subjected to 5 cycles of Edman degradation. N-terminal sequence obtained is shown in bold following upstream residues from TTCF (tetanus toxin numbering). The N-terminal sequence of His-tagged TTCF was obtained for fragments 1 and 3. (c) Residues Asn 1184 and Glu 1184 in TTCF were mutated to alanine (see Methods) and digestions performed as before. The mutation abolishes cleavage at the mutated site but not at the first site (doublet at 47 kD). In this experiment cleavage of the third site was minimal. • Figure 2: TTCF is processed by an asparaginyl endopeptidase. (a) Chromatography of the TTCF processing activity on Mono-S resin. Fractions eluted by NaCl gradient were incubated with the substrates Z-Ala-Ala-Asn-NHMec or Z-Phe-Arg-NHMec in the presence or absence of E64 (trans-epoxysuccinyl-L-leucylamido-(4-guanidino)butane). […] (b) Fractions as above were incubated with 10 µg TTCF in the presence or absence of E64 for 4 hours at 37°C prior to SDS-PAGE analysis. (c) Each fraction was analysed by SDS-PAGE and Western blotting. Electrophoretically transferred material was probed with an affinity purified antiserum raised against the peptide KGIGSGKVLKSGPQC from human legumain^1. • Figure 3: Peptide inhibitors of AEP block asparaginyl endopeptidase activity and TTCF processing in vitro and in vivo. […] Release of 7-amino-4-methyl coumarin was measured after 10, 20 or 30 minutes. […] At different times the cells were washed, fixed in 0.05 % glutaraldehyde and antigen presentation measured using proliferation of different autologous TTCF-specific T cell clones. c, AEP pre-processing of TTCF speeds antigen presentation. […] Presentation was measured after 60 minutes of antigen pulsing using EBV B cells.
We decided to test the possibility that high concentrations of asparagine containing peptides might act as competitive inhibitors. […] To establish that inhibition of AEP was specific, we measured the hydrolysis of different synthetic peptide substrates in the presence and absence of these tetrapeptides.

[3] = test system: Asparagine endopeptidase (AEP); assay: AEP
[4] = B cell lysosomal fractions (crude lysosomal protease mixture); details: human, up to 30 minutes
[5] = Mono-S fractions of the partially purified TTCF processing activity from a crude B cell lysosome fraction; details: human, 37°C, up to 4 hours
AEP = assay: Purified AEP; details: up to 30 minutes

Molecule: NC(=O)CI [iodoacetamide]
- sensitivity of lysosomal TTCF digestion activity to inhibitor ([1]; iodoacetamide 1 mM, 4 hours at 37°C, Fig 1a): sensitive

Molecule: NCCCC[C@H](NC(=O)OCC1c2ccccc2-c2ccccc21)C(=O)N[C@@H](CCC(N)=O)C(=O)N[C@@H](CCC(N)=O)C(=O)N[C@@H](CCC(=O)O)C(N)=O [KQQE] (Fmoc-KQQE-NH2)
- inhibition of processing of TTCF by AEP [2]: did not inhibit

Molecule: [N-]=[N+]=CC(=O)[C@H](Cc1ccccc1)NC(=O)[C@H](Cc1ccccc1)NC(=O)OCc1ccccc1 [Z-Phe-Phe-CHN2] (Cbz-Phe-Phe-CHN2)
- sensitivity of lysosomal TTCF digestion activity to inhibitor ([1]; high concentrations, data not shown): sensitive

Molecule: CCN1C(=O)C=CC1=O [N-ethyl maleimide]
- effect on lysosomal TTCF digestion activity ([1]; concentration not given, data not shown): sensitive

Continued, in another order:

- cleaved bond [3]: N630-V631; also recorded: N637-F638
Molecule: QQQHLFGSNVTDCSGNFCLFRKKK

- cleaved bond [4]: Asn-NHMec
Molecule: Z-Val-Ala-Asn-NHMec

- cleaved bond [5]: Asn-7-(4-methyl)coumarylamide
- cleaved bond (AEP): Asn-NHMec, 10 minutes
Molecule: Z-Ala-Ala-Asn-7-(4-methyl)coumarylamide

- cleaved bond [3]: N637-F638
Molecule: QQQHLFGSN(CHO)VTDCSGNFCLFR
- not cleaved [3]: fragments VTDCSGNFCLFR and QQQHLFGSN(CHO) not observed
